{"source": "patent US20040092438A1", "about": "“Gd3-synthesis inhibitors for treating neuropathological disorders” (priority 1999, published 2004)", "key": {"focal cerebral ischemia": {"test_system": "focal cerebral ischemia", "settings": "single i.p. 100 mg/kg with piperonyl butoxide; p <0.007", "description": "(§3) This was done by pushing a siliconized nylon suture through the common carotid artery as far as the MCA and stopping the blood flow through the MCA. After 90 min, the thread was withdrawn and thus the blood circulation was restored. The animals were under deep anesthesia (ketamine and Rompun; each 150 mg/kg of bodyweight) and the rectal temperature was maintained at about 37° C. with heat lamps and a heated cushion throughout the operation. After an observation period of 24 hours, the animals were again anesthetized, and the brains were dissected after perfusion.\nThe stained sections were scanned directly (MCID-M4,3.0; Imaging Res. Inc.). […] The significance was determined by the Mann-Whitney test. […] Averaging took place with the Scion-Image b 3.b."}, "[1]": {"test_system": "GD3 levels in the ischemic hemisphere", "test": "GD3 levels in brain after MCA occlusion (thin-layer chromatography)", "format": "in vivo, mice (C57BL6 strain)", "settings": "single i.p. 100 mg/kg with piperonyl butoxide 400 mg/kg, 15 min after MCA occlusion; 90-minute occlusion, 24-hour reperfusion", "description": "as §3\nThus, tissues and cells were disrupted by two freeze-thaw cycles. The polar lipids were extracted, and the gangliosides were chromatographed on silica gel plates 60 for high performance thin-layer chromatography (HPTLC) (Merck, Darmstadt, Germany), dried and visualized with resorcinol. […] For the immunostaining, the plates were coated with 0.5% poly(isobutyl methacrylate) in hexane, dried, incubated with the monoclonal antibody R24 (IgG3) directed against GD3 for 1 h, and read via the immunoperoxidase stain. The bands were then scanned and analyzed by densitometry using the AIDA-1000/1B image analyzer (Raytest Isotopenmessgerate, Straubenhardt, Germany)."}, "primary neurons [2]": {"test_system": "primary neurons", "test": "Oxygen/glucose deficiency in vitro, specific death of primary neurons", "format": "cell-based, mouse", "settings": "80 nM added 48 h before 6-hour oxygen/glucose deficiency, then reperfusion; relative to ST8-Sc-treated neurons", "procedure": "Neurons were obtained from transgenic mice whose acid sphingomyelinase had been inactivated (ASM^−/−; Hirunouchi, K., et al., Nature Genetics 10, 288-294 (1995)) and wild-type mice of the same generation (ASM^+/+). Primary neuron cultures were prepared from 15- to 17-day mouse fetuses as previously described by Dawson, T. M., et al, Ann. neurol. 30, 843-6 (1991). […] The cells were applied to polyornithine-coated 24-well plates (Sigma, Deisenhofen, Germany). After 4 days, the cells were treated with cytosine arabinoside (5 μM) for a further four days in order to inhibit the proliferation of non-neural cells. The cell cultures were then kept at 8% CO2 and 37° C. in MEM, 10% horse serum, 25 mM glucose and 2 mM L-glutamine in a humidity incubator. The neurons were allowed to mature in culture for at least 8 days before being used for the experiment. The proportion of glial cells in the culture was determined using an antibody directed against glial fibrillary acidic protein (GFAP) to be less than 10%. […]\n(§1) The percentage of dead cells was determined by trypan blue exclusion and expressed as percentage of the specific death. This was calculated as follows:\n(§2) % specific death=(detected death−spontaneous death)/(100−spontaneous death)×100"}, "GD3 synthase": {"test_system": "GD3 synthase", "test": "GD3 levels in neurons after oxygen/glucose deficiency and reperfusion (thin-layer chromatography)", "format": "cell-based, mouse", "settings": "80 nM added 48 h before 6-hour oxygen/glucose deficiency, 24-hour reperfusion; relative to ST8-Sc-treated neurons", "procedure": "The procedure for generating a combined oxygen/glucose deficiency was known per se (Kaku, D. A., et al., Brain Res. 554:344-7; Monyer, H. et al., Neuron 8, 967-73 (1992); with slight modifications). The culture medium was replaced by MEM, 1% horse serum and 2 mM L-glutamine. The cultures were kept in an anaerobic chamber which contained a gas mixture comprising […], 85% N2 and 5% CO2, at 37° C. and 100% humidity for 6 h. The oxygen/glucose deficiency was abolished by removing the cultures from the chamber and adding horse serum and glucose to a final concentration of 10% and 25 mM respectively. The cultures were then replaced in a humidity incubator containing 8% CO2 and atmospheric oxygen for a further 3 h, 18 h or 24 h. […]\nGD3 was determined as previously described by De Maria, R., et al., Science 277, 1652-5 (1997). […] For the immunostaining, the plates were coated with 0.5% poly(isobutyl methacrylate) in hexane, dried, incubated with the monoclonal antibody R24 (IgG3) directed against GD3 for 1 h, and read via the immunoperoxidase stain. The bands were then scanned and analyzed by densitometry using the AIDA-1000/1B image analyzer (Raytest Isotopenmessgerate, Straubenhardt, Germany)."}, "primary neurons [3]": {"test_system": "primary neurons", "test": "Neuronal death after addition of gangliosides to cortical neuron cultures", "format": "cell-based, mouse", "settings": "24 h after addition of 500 μM (highest dose) to cortical neuronal cells", "procedure": "Neurons were obtained from transgenic mice whose acid sphingomyelinase had been inactivated (ASM^−/−; Hirunouchi, K., et al., Nature Genetics 10, 288-294 (1995)) and wild-type mice of the same generation (ASM^+/+). Primary neuron cultures were prepared from 15- to 17-day mouse fetuses as previously described by Dawson, T. M., et al, Ann. neurol. 30, 843-6 (1991). […] The cells were applied to polyornithine-coated 24-well plates (Sigma, Deisenhofen, Germany). After 4 days, the cells were treated with cytosine arabinoside (5 μM) for a further four days in order to inhibit the proliferation of non-neural cells. The cell cultures were then kept at 8% CO2 and 37° C. in MEM, 10% horse serum, 25 mM glucose and 2 mM L-glutamine in a humidity incubator. The neurons were allowed to mature in culture for at least 8 days before being used for the experiment. The proportion of glial cells in the culture was determined using an antibody directed against glial fibrillary acidic protein (GFAP) to be less than 10%.\nas §1, §2\nCortical neuronal cells were treated with increasing doses of GD3. […]"}}, "data": [{"molecule": "CCCCCCCCCC(=O)N[C@H](CN1CCOCC1)[C@H](O)c1ccccc1", "note": "[D-PDMP, D-threo-1-phenyl-2-decanoylamino-3-morpholino-1-propanol]", "values": [{"measurement": "reduction in the lesion caused by stroke compared with untreated ischemic animals", "setting": "focal cerebral ischemia", "result": 90, "unit": "%"}, {"measurement": "increase in GD3 on the ischemic side compared with the non-ischemic side", "setting": "[1]", "result": 10, "unit": "%"}]}, {"molecule": "GD3 synthase antisense oligodeoxynucleotides: antisense oligodeoxynucleotides against GD3 synthase (SEQ ID NO:2) (antisense CAGTACAGCCATGGCCCCTCT; DNA, backbone and methylation of C not given here)", "values": [{"measurement": "mortality, % of the level in cultures treated with randomly arranged sequence", "setting": "primary neurons [2]", "result": 50, "unit": "%"}, {"measurement": "accumulation of GD3, % of controls", "setting": "GD3 synthase", "result": 55, "unit": "%"}]}, {"molecule": "II^3(NeuAc-α-2,8-NeuAc)LacCer [GD3]", "values": [{"measurement": "specific neuronal death", "setting": "primary neurons [3]", "result": "up to 80%"}]}]}
